Results: patent publication US6797721B2, “Phorboxazole derivatives for treating cancer” (Parker Hughes Institute, priority 1999, dated 2004)
pIC50: −log10 of the molar value.

Key:
[1] = test system: NALM-6 human B-lineage acute lymphoblastic leukemia cells; assay: MTT cytotoxicity assay, NALM-6; format: cell-based; settings: NALM-6 (leukemia, ALL), 24-36 hours, read-out: IC50 [MTT]
Method: (§1) The cytotoxicity assay of synthetic Phorboxazole A and various derivative compounds against human tumor cells was performed using the MTT (3-[4,5-dimethylthiazol-2-yl]-2,5-diphenyl tetrazolium bromide) assay (Boehringer Mannheim Corp., Indianapolis, Ind.). Briefly, exponentially growing brain tumor cells were seeded into a 96-well plate at a density of 2.5×10^4 cells/well and incubated for 36 hours at 37° C. prior to drug exposure. On the day of treatment, culture medium was carefully aspirated from the wells and replaced with fresh medium containing the various phorboxazole A derivative compounds as well as the tyrosine kinase inhibitory isoflavone genistein (GEN) at concentrations ranging from 0.1 to 250 μM. Triplicate wells were used for each treatment.
(§2) Human glioblastoma cells U373 (brain cancer), human B-lineage acute lymphoblastic leukemia cells NALM-6, and human breast cancer cells BT-20 were obtained from American Type Culture Collection (Rockville, Md.) and maintained as a continuous cell line in Dulbecco's modified Eagles's medium supplemented with 10% fetal bovine serum and antibiotics.
(§3) The cells were incubated with the various compounds for 24-36 hours at 37° C. in a humidified 5% CO2 atmosphere. To each well, 10 μl of MTT (0.5 mg/ml final concentration) was added and the plates were incubated at 37° C. for 4 hours to allow MTT to form formazan crystals by reacting with metabolically active cells. The fonnazan crystals were solubilized overnight at 37° C. in a solution containing 10% SDS in 0.01 M HCl. The absorbance of each well was measured in a microplate reader (Labsystems) at 540 nm and a reference wavelength of 690 nm. To translate the OD540 values into the number of live cells in each well, the OD540 values were compared to those on standard OD540-versus-cell number curves generated for each cell line. The percent survival was calculated using the formula: [formula]
(§4) The IC50 values were calculated by non-linear regression analysis.

[2] = test system: BT-20 human breast cancer cells; assay: MTT cytotoxicity assay, BT-20; format: cell-based; settings: BT-20 (breast cancer), 24-36 hours, read-out: IC50 [MTT]
Method: as §1, §2, §3, §4

[3] = test system: U373 human glioblastoma cells; assay: MTT cytotoxicity assay, U373; format: cell-based; settings: U373 MG, U373 (brain tumor, glioblastoma), 24-36 hours, read-out: IC50 [MTT]
Method: as §1, §2, §3, §4

[4] = test system: NALM-6 B-lineage ALL cells; assay: Clonogenic assay, NALM-6; format: cell-based, human; settings: 7 days; for inhibition at 0.001 µM / inhibition at 0.01 µM / inhibition at 0.1 µM: Homo sapiens, 168 h, read-out: Inhibition of clonogenic growth
Method: (§5) The growth-inhibiting activity of the synthetic Phorboxazole A and the synthesized derivatives was tested in clonogenic assays. Cancer cells were treated with 1 nM, 10 nM, and 100 nM doses of synthetic Phorboxazole A or derivatives of phorboxazole A. Treated cells included U373 human glioblastoma cells, NALM-6, human B-lineage acute lymphoblastic leukemia cells, and BT-20 human breast cancer cells. The cancer cells were resuspended in clonogenic medium consisting of alpha-MEM supplemented with 0.9% methylcellulose, 30% fetal bovine serum, and 50 μM 2-mercaptoethanol. Cells were plated in duplicate Petri dishes at 100,000 cells/mL/dish and cultured in a humidified 5% CO2 incubator for 7 days. Cancer cell colonies were enumerated on a grid using an inverted phase microscope of high optical resolution. Results were expressed as % inhibition of clonogenic cells at a particular concentration of the test agent using the formula:
(§6) % Inhibition=(1−Mean # of colonies [Test]/Mean # of colonies [Control]×100.

[5] = test system: BT-20 human breast cancer cells; assay: Clonogenic assay, BT-20; format: cell-based; settings: 7 days; for inhibition at 0.001 µM / inhibition at 0.01 µM / inhibition at 0.1 µM: Homo sapiens, 168 h, read-out: Inhibition of clonogenic growth
Method: as §5, §6

[6] = test system: U373 human glioblastoma cells; assay: Clonogenic assay, U373; format: cell-based; settings: 7 days; for inhibition at 0.01 µM / inhibition at 0.1 µM: Homo sapiens, U373 MG, 168 h, read-out: Inhibition of clonogenic growth
Method: as §5, §6

[7] = test system: human breast cancer cell line BT-20; assay: In situ detection of apoptosis (nick-end-labeling, confocal microscopy); format: cell-based; settings: final concentration of 100 μM, 24 hours
Method: The synthetic Phorboxazole A and the synthetic analogs were also assayed for apoptosis-inducing activity. Assay for apoptosis was performed by the in situ nick-end-labeling method using an ApopTag in situ detection kit (Oncor, Gaithersburg, Md.) according to the manufacturer's reconmmendations. Immunofluorescence was used to examine the morphologic features of human breast cancer cell line BT-20 (American Type Culture Collection Rockville, Md.) treated with the novel phorboxazole A derivatives of the present invention.
Cells were trypsinized from rapidly growing tissue culture flasks and seeded onto sterile 22 mm^2 coverslips in 6-well culture plates. Cells on coverslips were returned to the incubator for 24 hours prior to treatment. The phorboxazole A derivatives were added to the cells from a stock solution made in DMSO to a final concentration of 100 μM. Final DMSO concentration were kept at 0.1% in both test samples and controls. Cells were returned to a 37° C. incubation for 24 hours before further processing. At 24 hours, coverslips were fixed in −20° C. methanol for 15 minutes followed by a 15 minute incubation in phosphate buffered saline +0.1% Triton X-100 (PBS-Tx). Coverslips were then incubated with a monoclonal antibody against α-tubulin (Sigma Chemical Co., St. Louis, Mo.) at a dilution of 1:1000 for 40 minutes in a humidified chamber at 37° C. Coverslips were washed for 15 minutes in PBS-Tx followed by a 40 minute incubation with goat anti-mouse IgG antibody conjugated to FITC (Amersham Corp., Arlington Heights, Ill.). The coverslips were again rinsed in PBS-Tx and incubated with 5 μM TOTO-3 (Molecular Probes, Eugene, Oreg.) for 20 minutes to label the nuclear DNA. Coverslips were immediately inverted onto slides in Vectashield (Vector Labs, Burlingame) to prevent photobleaching, sealed with nail varnish and stored at 4° C.
Slides were examined using a Bio-Rad MRC-1024 Laser Scanning Confocal Microscope mounted on a Nikon Eclipse E800 upright microscope with high numerical aperture objectives. […]

[8] = test system: leukemia NALM-6 cells; assay: Mitochondrial transmembrane potential assay (DiIC1(5) staining); format: cell-based, human; settings: 2.5 nM, 5 nM or 10 nM, 72 hours
Method: FIG. 2 are graphs showing the effect of synthetic phorboxazole A and phorboxazole A derivatives on the mitochondrial transmembrane potentials of leukemia NALM-6 cells.
Cells were incubated with 2.5 nM, 5 nM or 10 nM of phorboxazole A, 33-O-methyl-phorboxazole A or 45,46-dehydrobromo-phorboxazole A for 72 hours, stained with DiICl (5) to assess the mitochondrial membrane potential (Δψm) and then analyzed with a cell sorter equipped with a HeNe laser.

[9] = test system: U373 glioblastoma spheroids; assay: Cell migration from glioblastoma spheroids; format: cell-based, human; settings: U373 spheroids on fibronectin-coated coverslips; 48 hours; varied concentrations
Method: U373 glioblastoma spheroids of 200 to 400 micrometers in diameter were treated with synthetic Phorboxazole A, 33-O-Methyl-phorboxazole A, and 45,46-dehydrobromo-phorboxazole A in 0.1% DMSO at varied concentrations. Cells were incubated with the inhibitor or with control DMSO in the absence of inhibitor compound for two hours, and then transferred to fibronectin-coated coverslips. The spheroids were then incubated in DMEM containing […] at 37° C. for 48 hours.
In addition, multi-cellular U373 glioblastoma spheroids of 200-400 μm diameter were incubated with 500 nM, 250 nM, 125 nM, 62.5 nM and […] phorboxazoleA, 29-phorboxamide A, 18-methyl phorboxylate and 31-methyl phorboxylate in 0.1% DMSO or 0.1% DMSO alone for 2 hours and transferred to fibronectin-coated coverslips. The spheroids were then incubated in MEM containing respective compounds and cultured for 48 hours at 37° C. At the end of incubation, the spheroids were fixed and stained with Hema-3 solutions. The distance of migrated cells from spheroids was measured using a mircoscope and micrometer.

Row | Compound | pIC50 [1] | pIC50 [2] | pIC50 [3] | Mean Number Colonies/10^4 cells ([4]; 1 nM) | Mean Number Colonies/10^4 cells ([4]; 10 nM) | Mean Number Colonies/10^4 cells ([4]; 100 nM) | inhibition at 0.001 µM ([4]; 1 nM) [%] | inhibition at 0.01 µM ([4]; 10 nM) [%] | inhibition at 0.1 µM ([4]; 100 nM) [%] | Mean Number Colonies/10^4 cells ([5]; 1 nM) | Mean Number Colonies/10^4 cells ([5]; 10 nM) | Mean Number Colonies/10^4 cells ([5]; 100 nM) | inhibition at 0.001 µM ([5]; 1 nM) [%] | inhibition at 0.01 µM ([5]; 10 nM) [%] | inhibition at 0.1 µM ([5]; 100 nM) [%] | Mean Number Colonies/10^4 cells ([6]; 10 nM) | Mean Number Colonies/10^4 cells ([6]; 100 nM) | inhibition at 0.01 µM ([6]; 10 nM) [%] | inhibition at 0.1 µM ([6]; 100 nM) [%] | Apoptosis-inducing activity [7] | further results
1 | C#CC[C@H](/C=C/C(C)=C/[C@@H](O)[C@H]1C[C@@H](OC)C[C@@](O)(Cc2nc(/C=C(\C)[C@@H]3O[C@@H]4C/C=C/c5nc(co5)[C@H]5C[C@H](O)C[C@@H](C[C@H]6CC(=C)C[C@H](C/C=C\C(=O)O[C@@H]([C@H]4C)[C@H]3C)O6)O5)co2)O1)OC [Compound 8, 45,46-Dehydrobromo-Phorboxazole A] | 8.32 | 7.90 | 7.56 | 2116 | 293 | 0 | 0 | 85.7 | > 99.9 | 1540 | 1062 | 0 | 0 | 30.3 | > 99.9 | 586 | 144 | 10.7 | 78.1 | apoptotic activity | Depolarized mitochondria (mitochondrial membrane potential) [8]: progressive increase in depolarized mitochondria; Inhibition of cell migration from the spheroid [9]: significantly inhibited cell migration
2 | C=C1C[C@@H]2C[C@@H]3C[C@@H](O)C[C@@H](O3)c3coc(n3)/C=C/C[C@H]3O[C@@H](/C(C)=C/c4coc(C[C@]5(OC)C[C@H](OC)C[C@H]([C@H](O)/C=C(C)/C=C/[C@@H](C/C=C/Br)OC)O5)n4)[C@H](C)[C@@H](OC(=O)/C=C\C[C@@H](C1)O2)[C@H]3C [Compound 9, 33-O-methyl-Phorboxazole A] | 8.28 | 7.95 | 7.53 | 1760 | 422 | 0 | 14 | 79.4 | > 99.9 | 1824 | 1430 | 0 | 0 | 6.2 | > 99.9 | 578 | 0 | 11.9 | > 99.8 | apoptotic activity | Depolarized mitochondria (mitochondrial membrane potential) [8]: progressive increase in depolarized mitochondria; Inhibition of cell migration from the spheroid [9]: significantly inhibited cell migration
